{
  "source": "patent US10945989B2",
  "about": "“Perinatal treatment with a flavonoid agonist of the TrkB receptor for BDNF rescues neurogenesis and behavior in the Ts65Dn mouse model of DS” (ALMA MATER STUDIORUM—Universita' di Bologna, priority 2017, dated 2021)",
  "key": {"[1]": {"tested_on": "Ts65Dn and euploid mice", "experiment": "Morris Water Maze, probe test", "format": "in vivo, mouse"}, "[2]": {"tested_on": "NPCs from the SVZ of Ts65Dn mice", "experiment": "Neuron maturation: cells exhibiting neuritic processes, SVZ NPCs", "format": "cell-based, mouse", "conditions": "96 h, vs standard medium", "method": "Cells were isolated from the subventricular zone (SVZ) of the lateral ventricle and the subgranular zone (SGZ) of the hippocampal dentate gyrus (DG) of newborn (P1-P2) euploid and Ts65Dn mice. Briefly, brains were removed, the SVZ and SGZ regions were isolated and individually collected in ice-cold PIPES buffer pH 7.4. After centrifugation, tissue was digested for 10 min at 37° C. using Trypsin/EDTA 0.25% (Life Technologies) aided by gentle mechanical dissociation. Cell suspension from each individual mouse was plated onto 25 cm^2 cell-culture flask (Thermo Fisher Scientific) and cultured as floating neurospheres in medium containing basic fibroblast growth factor (bFGF, 10 ng/ml; Peprotech) and epidermal growth factor (EGF, 20 ng/ml; Peprotech) using an established protocol (Meneghini et al., 2014). […] Cell proliferation was quantified as relative luminescence units (RLU) values using Cell Titer-Glo viability assay reagent (Promega) on aVictor^3-V plate reader (PerkinElmer). […] In each experiment, five fields/well (corresponding to about 150-200 cells/well) were counted with a 60× objective by a Leica DMIRB inverted fluorescence microscope. Immunoreactive cells were counted and their percentage over total viable cells was calculated. […]"}, "[3]": {"tested_on": "TrkB receptor (TrkB-FL, p-TrkB-FL, TrkB-T1)", "experiment": "Western blot of hippocampal homogenates: TrkB receptors", "format": "in vivo, mouse", "method": "(§1) Euploid and Ts65Dn mice received a daily subcutaneous injection (at 9-10 am) of 7,8-DHF (5.0 mg/kg in vehicle: PBS with 1% DMSO) or vehicle from postnatal day 3 (P3) to postnatal day 15. This timing was chosen because it corresponds to that previously used to test the effects of fluoxetine and other pharmacotherapies in the neonate Ts65Dn mouse (Bianchi et al., 2010b; Giacomini et al., 2015; Stagni et al., 2016). Mice that received 7,8-DHF will be called “treated mice” (treated euploid mice: n=25; treated Ts65Dn mice: n=15). Mice that received the vehicle will be called “untreated mice” (untreated euploid mice: n=35; untreated Ts65Dn mice: n=21). […] The brains were excised and cut along the midline. The left hemisphere of a group of mice was fixed by immersion in PFA 4% and frozen, and the left hemisphere of another group of mice was used for Golgi staining. The right hemispheres of all mice was kept at −80° C. and used for western blotting.\nIn homogenates of the hippocampal formation of P15 mice, total proteins were obtained as previously described (Trazzi et al., 2011) and the levels of the following proteins were evaluated: BDNF, TrkB full length (TrkB-FL), phosphorylated TrkB (p-TrkB), the truncated form 1 of the TrkB receptor (TrkB-T1), phosphorylated ERK1 (p-ERK1), phosphorylated ERK2 (p-ERK2), ERK1, ERK2, synaptophysin (SYN), GAPDH and α-Tubulin using the antibodies reported in Table 1. Densitometric analysis of digitized images with ChemiDoc XRS+ was performed with Image Lab software (Bio-Rad Laboratories, Hercules, Calif., USA) and intensity for each band was normalized to the intensity of the corresponding GAPDH or α-Tubulin band."}, "[4]": {"experiment": "Body and brain weight, neonatal treatment (P15, P45)", "format": "in vivo, mouse", "method": "as §1\nEuploid and Ts65Dn mice received a daily subcutaneous injection (at 9-10 am) of 7,8-DHF (5.0 mg/kg in vehicle) or vehicle from postnatal day 3 (P3) to postnatal day P45-P50. […] These mice will be called here P45 mice. Mice were behaviorally tested in the 6 days that preceded the day of sacrifice (FIG. 2B).\nThe body weight of mice of all groups was recorded prior to sacrifice and the brain weight was recorded immediately after brain removal. The number of animals used for each experimental procedure is specified in the figure legends and in Table 3."}, "[5]": {"conditions": "Ts65Dn mice, became similar to untreated euploid mice"}, "[6]": {"conditions": "P15 Ts65Dn mice, 5.0 mg/kg s.c. daily P3-P15"}, "[7]": {"conditions": "P45 Ts65Dn mice, 5.0 mg/kg s.c. daily P3-P45"}},
  "data": [
    {"smiles": "O=c1cc(-c2ccccc2)oc2c(O)c(O)ccc12", "note": "[7,8-DHF, 7,8-dihydroxyflavone]", "values": [
      {"measurement": "percentage of time spent at the periphery (probe test)", "setting": "[1]; Ts65Dn mice", "result": "reduced in comparison with their untreated counterparts"},
      {"measurement": "frequency of entrances in the former quadrant", "setting": "[1]; [5]", "result": "notable increase in the frequency"},
      {"measurement": "latency to enter the former platform zone", "setting": "[1]; [5]", "result": "notable reduction in their latency"},
      {"measurement": "proximity to the former platform position", "setting": "[1]; [5]", "result": "swam closer to the former platform zone"},
      {"measurement": "percentage of time spent in quadrants", "setting": "[1]; Ts65Dn mice, vs SE quadrant only marginally significant", "result": "significantly more time in the former platform quadrant in comparison with the NE quadrant"},
      {"measurement": "frequency of entrances in the former quadrant", "setting": "[1]; euploid mice", "result": "large increase in the frequency of entrances"},
      {"measurement": "percentage of time spent at the periphery (probe test)", "setting": "[1]; euploid mice, treated vs. untreated", "result": "reduction in the percentage of time at the periphery"},
      {"measurement": "percentage of time spent in quadrants", "setting": "[1]; euploid mice, vs NE and SE quadrants", "result": "significantly more time in the former platform quadrant"},
      {"measurement": "doses that increased the percentage of cells exhibiting neuritic processes", "setting": "[2]", "result": "higher than 0.3 μM"},
      {"measurement": "levels of p-TrkB-FL", "setting": "[3]; P15, both genotypes (euploid and Ts65Dn)", "result": "increase in the levels of p-TrkB-FL"},
      {"measurement": "levels of TrkB-FL", "setting": "[3]; P15 Ts65Dn mice", "result": "reduction in the levels of TrkB-FL"},
      {"measurement": "levels of TrkB-T1", "setting": "[3]; P15 Ts65Dn mice, vs untreated counterparts and untreated euploid mice", "result": "reduction in the levels of TrkB-T1"},
      {"measurement": "body weight", "setting": "[4]; [6]", "result": "did not further reduce the body weight"},
      {"measurement": "brain weight", "setting": "[4]; [6]", "result": "did not cause a further brain weight reduction"},
      {"measurement": "brain weight", "setting": "[4]; P15 euploid mice, 5.0 mg/kg s.c. daily P3-P15, vs untreated", "result": "slight but significant brain weight reduction"},
      {"measurement": "body weight", "setting": "[4]; [7]", "result": "did not further reduce their body weight"},
      {"measurement": "brain weight (reduction vs untreated euploid mice)", "setting": "[4]; [7]", "result": "this difference disappeared"},
      {"measurement": "body weight", "setting": "[4]; P45 euploid mice, 5.0 mg/kg s.c. daily P3-P45, vs untreated", "result": "body weight reduction"}
    ]}
  ]
}
